{"source": "paper PMC6445163", "about": "“Design, synthesis, and evaluation of novel 2-phenylpropionic acid derivatives as dual COX inhibitory-antibacterial agents” (Journal of Enzyme Inhibition and Medicinal Chemistry, 2017)", "tested_on": "TA100 (base-pair substitutions)", "test": "Ames MPF mutagenicity assay, TA100", "type": "cell-based, Salmonella typhimurium", "conditions": "Salmonella typhimurium; each concentration, with and without S9; read-out: Fold inductions over baseline, TA 100", "protocol": "Salmonella typhimurium strains, TA98 (frameshift mutations) and TA100 (base-pair substitutions), are used in this assay. Concentration range of the compounds was between […] and 5000 µg/mL according to the previous guidelines. Compounds were prepared in six different concentrations (5, 2.5, 1.25, 0.625, 0.3125 and 0.156 mg/mL) in DMSO. Mutagenic potential was determined in absence and presence of Aroclor™-1254 induced male Sprague–Dawley rat liver microsomal enzyme (S9) mix (Xenometrix AG, Switzerland). Positive controls without S9 mix were 2-Nitrofluorene (2 µg/mL) and 4-nitroquinoline N-oxide (0.1 µg/mL) whereas 1 and 2.5 µg/mL of 2-aminoanthracene solutions were used as positive controls with S9 against TA 98 and TA100, respectively. Solvent control was prepared with 4% DMSO. At the end of the experiment, revertant bacteria dropped the pH of solution and indicator medium color was changed to yellow. Yellow wells were counted as positive and compared with the negative control. Fold induction over the negative control and fold induction over the baseline were calculated. Fold induction over the negative control is the ratio of the mean number of positive wells for the dose concentration divided by the mean number of positive wells for the zero dose (negative) control. Fold induction over the baseline is the ratio of the mean number of positive wells for the dose concentration divided by zero dose baseline. The zero dose baseline is obtained by adding one standard deviation to the mean number of positive wells of the zero dose control. Mutagenicity was determined according to the criteria from previous studies[52]^,[56]. For a value ≤3 and significant increases between two and three-fold the baselines were classified as a weak mutagen, and increases ≥ three-fold the baselines were classified as a mutagen. […] As a rule, at least two adjacent doses with significant increases or a significant increase at the highest dose level should be observed for a mutagenic compound. All doses were compared according to Student’s t-test at p < .05 for statistical significance.\nAmes assay was performed to investigate the genotoxicity of compounds 6h and 6l."}
{"smiles": "COc1ccc2[nH]c(SCc3ccc(C(C)C(=O)O)cc3)nc2c1", "note": "(stereo not shown) [Compound 6l, 2-(4-(((5-Methoxy-1H-benzo[d]imidazol-2-yl)thio)methyl)phenyl)propanoic acid]", "values": [{"measurement": "fold induction", "value": "< 1.5"}]}
